Counter-ions that a name gives are not always drawn.

The target of this assay is HIS-TGF-βR1 T204D (Homo sapiens (Human), UniProt P36897, T204D). The assay is described as follows: HTRF probe displacement assay with HIS-TGF-βR1 T204D. The following applies: read-out: TGFbr1 IC50; HTRF probe displacement, 1 nM HIS-TGF-βR1 T204D, 1 hour at room temperature.
Sequence of HIS-TGF-βR1 T204D (P36897 34-503 T204D): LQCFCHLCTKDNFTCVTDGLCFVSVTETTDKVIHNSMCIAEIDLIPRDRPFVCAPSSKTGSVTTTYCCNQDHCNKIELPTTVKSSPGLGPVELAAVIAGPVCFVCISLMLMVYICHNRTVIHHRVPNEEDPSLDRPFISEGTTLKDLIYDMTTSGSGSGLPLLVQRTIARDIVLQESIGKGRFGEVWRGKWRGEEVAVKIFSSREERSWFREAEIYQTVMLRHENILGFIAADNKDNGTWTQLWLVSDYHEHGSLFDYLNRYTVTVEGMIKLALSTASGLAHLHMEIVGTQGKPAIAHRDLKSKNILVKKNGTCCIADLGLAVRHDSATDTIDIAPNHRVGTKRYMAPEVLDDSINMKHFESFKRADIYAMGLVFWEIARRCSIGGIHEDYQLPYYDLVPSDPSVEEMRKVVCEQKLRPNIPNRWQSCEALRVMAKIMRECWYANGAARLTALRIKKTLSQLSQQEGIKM
As a reminder, the IC50 is the concentration needed to halve the response being measured. Take `N#Cc1ccc(-c2ncn(CC(F)F)c2-c2ccc3ncc(C#N)n3n2)cc1` [258′, 6-(4-(4-cyanophenyl)-1-(2,2-difluoroethyl)-1H-imidazol-5-yl)imidazo[1,2-b]pyridazine-3-carbonitrile]: the IC50 turned out to be 356 nM.
Turning to `OCc1cnc2ccc(-c3c(-c4ccc(F)cc4)ncn3CC(F)F)cn12` [274D′, (6-(1-(2,2-difluoroethyl)-4-(4-fluorophenyl)-1H-imidazol-5-yl)imidazo[1,2-a]pyridin-3-yl)methanol], the IC50 was found to be 92.6 nM.
The same measure for `CCOCCn1cnc(-c2ccc(F)cc2)c1-c1ccc2ncc(C#N)n2c1` [91′, 6-(1-(2-ethoxyethyl)-4-(4-fluorophenyl)-1H-imidazol-5-yl)imidazo[1,2-a]pyridine-3-carbonitrile]: 18.8 nM; for `N#Cc1cnc2ccc(-c3c(-c4ccc(F)cc4)ncn3C[C@H](O)CO)cn12` [92′, (S)-6-(1-(2,3-dihydroxypropyl)-4-(4-fluorophenyl)-1H-imidazol-5-yl)imidazo[1,2-a]pyridine-3-carbonitrile]: 266 nM.
Turning to `NC(=O)c1cnc2ccc(-c3c(-c4ccc(F)cc4)ncn3C3COC3)cn12` [173′, 6-(4-(4-fluorophenyl)-1-(oxetan-3-yl)-1H-imidazol-5-yl)imidazo[1,2-a]pyridine-3-carboxamide], the IC50 was determined as 6.6 nM.
For the molecule `FCCn1cnc(-c2ccc(F)c(Cl)c2)c1-c1ccc2nccn2c1` [187′, 6-(4-(3-chloro-4-fluorophenyl)-1-(2-fluoroethyl)-1H-imidazol-5-yl)imidazo[1,2-a]pyridine], the concentration for half-maximal inhibition (IC50) was found to be 3.3 nM.
The same measure for `CC(C)CCn1cnc(-c2ccc(F)c(Cl)c2)c1-c1ccc2ncc(C(N)=O)n2n1` [148′, 6-(4-(3-chloro-4-fluorophenyl)-1-isopentyl-1H-imidazol-5-yl)imidazo[1,2-b]pyridazine-3-carboxamide]: 1.1 nM.
As for `NC(=O)c1cnc2ccc(-c3c(-c4ccc(F)c(Cl)c4)ncn3CCF)nn12` [114′, 6-(4-(3-chloro-4-fluorophenyl)-1-(2-fluoroethyl)-1H-imidazol-5-yl)imidazo[1,2-b]pyridazine-3-carboxamide], the half-maximal inhibitory concentration (IC50) was determined as 1.3 nM.
As to `N#Cc1cnc2ccc(-c3c(-c4ccc(F)cc4)ncn3C3(C#N)CC3)nn12` [Example 267′, 6-(1-(1-cyanocyclopropyl)-4-(4-fluorophenyl)-1H-imidazol-5-yl)imidazo[1,2-b]pyridazine-3-carbonitrile, TFA], the half-maximal inhibitory concentration (IC50) was 0.3 nM.
For `CCn1cnc(-c2ccc(F)c(Cl)c2)c1-c1ccc2ncc(C(N)=O)n2n1` [117′, 6-(4-(3-chloro-4-fluorophenyl)-1-ethyl-1H-imidazol-5-yl)imidazo[1,2-b]pyridazine-3-carboxamide], the half-maximal inhibitory concentration (IC50) came to 0.6 nM.
Turning to `N#Cc1cnc2ccc(-c3c(-c4ccc(F)c(Cl)c4)ncn3[C@H]3CCC(F)(F)C3)nn12` [64′, (S)-6-(4-(3-chloro-4-fluorophenyl)-1-(3,3-difluorocyclopentyl)-1H-imidazol-5-yl)imidazo[1,2-b]pyridazine-3-carbonitrile], the IC50 was found to be 5.1 nM.
The same measure for `CC(O)c1cnc2ccc(-c3c(-c4ccc(F)cc4)ncn3CC(F)F)cn12` (centres unmarked) [Example 274′, 1-(6-(1-(2,2-difluoroethyl)-4-(4-fluorophenyl)-1H-imidazol-5-yl)imidazo[1,2-a]pyridin-3-yl)ethanol]: 137 nM; for `Cc1nc(-c2ccc(F)cc2)c(-c2ccc3ncc(C(N)=O)n3c2)n1CC(F)F` [Example 272′, 6-(1-(2,2-difluoroethyl)-4-(4-fluorophenyl)-2-methyl-1H-imidazol-5-yl)imidazo[1,2-a]pyridine-3-carboxamide]: 10.4 nM; for `Nc1cnc2ccc(-c3c(-c4ccc(F)cc4)ncn3CC(F)F)cn12` [284D′, 6-(1-(2,2-difluoroethyl)-4-(4-fluorophenyl)-1H-imidazol-5-yl)imidazo[1,2-a]pyridin-3-amine]: 1.2 nM.
The same measure for `NC(=O)c1cnc2ccc(-c3c(-c4ccc(F)c(Cl)c4)ncn3C3CCOC3)nn12` (centres unmarked) [146′, 6-(4-(3-chloro-4-fluorophenyl)-1-(tetrahydrofuran-3-yl)-1H-imidazol-5-yl)imidazo[1,2-b]pyridazine-3-carboxamide]: 1.7 nM; for `CC(C)n1cnc(-c2ccc(F)c(Cl)c2)c1-c1ccc2ncc(C(N)=O)n2n1` [116′, 6-(4-(3-chloro-4-fluorophenyl)-1-isopropyl-1H-imidazol-5-yl)imidazo[1,2-b]pyridazine-3-carboxamide]: 0.9 nM.
The same measure for `N#Cc1cnc2ccc(-c3c(-c4ccc(F)c(Cl)c4)ncn3CC3CC3)cn12` [96′, 6-(4-(3-chloro-4-fluorophenyl)-1-(cyclopropylmethyl)-1H-imidazol-5-yl)imidazo[1,2-a]pyridine-3-carbonitrile]: 94.4 nM.
Consider `CC(C)(F)Cn1cnc(-c2ccc(F)cc2)c1-c1ccc2ncc(C#N)n2n1` [23′, 6-(1-(2-fluoro-2-methylpropyl)-4-(4-fluorophenyl)-1H-imidazol-5-yl)imidazo[1,2-b]pyridazine-3-carbonitrile], for which the concentration for half-maximal inhibition (IC50) is 1.9 nM.
As to `Fc1ccc(-c2ncn(CC(F)F)c2-c2ccc3nccn3c2)cc1` [Example 218′, 6-(1-(2,2-difluoroethyl)-4-(4-fluorophenyl)-1H-imidazol-5-yl)imidazo[1,2-a]pyridine], the 50% inhibitory concentration (IC50) was determined as 62.7 nM.
The same measure for `NC(=O)c1cnc2ccc(-c3c(-c4ccc(F)cc4)ncn3CCO)nn12` [133′, 6-(4-(4-fluorophenyl)-1-(2-hydroxyethyl)-1H-imidazol-5-yl)imidazo[1,2-b]pyridazine-3-carboxamide]: 3.1 nM; for `N#Cc1cnc2ccc(-c3c(-c4ccc(F)cc4)ncn3C3CC3)cn12` [77′, 6-(1-cyclopropyl-4-(4-fluorophenyl)-1H-imidazol-5-yl)imidazo[1,2-a]pyridine-3-carbonitrile]: 19.8 nM.
For the molecule `N#Cc1cnc2ccc(-c3c(-c4ccc(F)cc4)ncn3CCCF)nn12` [21′, 6-(4-(4-fluorophenyl)-1-(3-fluoropropyl)-1H-imidazol-5-yl)imidazo[1,2-b]pyridazine-3-carbonitrile], the 50% inhibitory concentration (IC50) was 1.9 nM.
For `NC(=O)c1cnc2ccc(-c3c(-c4ccc(F)c(Cl)c4)ncn3CCCCl)nn12` [149′, 6-(4-(3-chloro-4-fluorophenyl)-1-(3-chloropropyl)-1H-imidazol-5-yl)imidazo[1,2-b]pyridazine-3-carboxamide], the half-maximal inhibitory concentration (IC50) was 1.7 nM.
`N#Cc1cnc2ccc(-c3c(-c4ccc(F)c(Cl)c4)ncn3CCCO)nn12` [38′, 6-(4-(3-chloro-4-fluorophenyl)-1-(3-hydroxypropyl)-1H-imidazol-5-yl)imidazo[1,2-b]pyridazine-3-carbonitrile]: the IC50 stood at 1 nM.
For `CCC(O)Cn1cnc(-c2ccc(F)cc2)c1-c1ccc2ncc(C#N)n2c1` (centres unmarked) [70′, 6-(4-(4-fluorophenyl)-1-(2-hydroxybutyl)-1H-imidazol-5-yl)imidazo[1,2-a]pyridine-3-carbonitrile], the IC50 amounted to 123 nM.
For the molecule `N#Cc1cnc2ccc(-c3c(-c4ccc(F)c(Cl)c4)ncn3C[C@@H]3CCCO3)nn12` [42′, (S)-6-(4-(3-chloro-4-fluorophenyl)-1-((tetrahydrofuran-2-yl)methyl)-1H-imidazol-5-yl)imidazo[1,2-b]pyridazine-3-carbonitrile], the IC50 turned out to be 1.8 nM.

These data come from patent publication US9884868B2, “TGF-beta inhibitors” (Rigel Pharmaceuticals, Inc., priority 2015, dated 2018).
